Measured values: PubChem BioAssay (NCI)
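Each compound was tested at five concentrations against cells in 96-well plates for 48 hours. GI50 is the concentration that inhibits growth by half. TGI marks complete inhibition of growth.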 Where a SMILES comes first, the peptide text is derived from it. [ ]: non-standard residue; d: D form. ξ: configuration not given here. ξ2Thi = NC(Cc1cccs1)C(=O)O; ξR = N=C(N)NCCCC(N)C(=O)O; ξI = CCC(C)C(N)C(=O)O; ξL = CC(C)CC(N)C(=O)O; ξK = NCCCCC(N)C(=O)O; ξT = CC(O)C(N)C(=O)O; ξA = CC(N)C(=O)O

Experiments:
Test in all cases: NCI-60 cell line screen, 48 h
SF-268 CNS = system: SF-268 CNS
SF-295 CNS = system: SF-295 CNS
KM12 colon = system: KM12 colon
SK-MEL-5 melanoma = system: SK-MEL-5 melanoma
NCI-H23 lung = system: NCI-H23 lung
SNB-75 CNS = system: SNB-75 CNS
SK-OV-3 ovarian = system: SK-OV-3 ovarian
HS 578T breast = system: HS 578T breast
SNB-19 CNS = system: SNB-19 CNS
OVCAR-4 ovarian = system: OVCAR-4 ovarian
T-47D breast = system: T-47D breast
A498 renal = system: A498 renal
OVCAR-5 ovarian = system: OVCAR-5 ovarian
PC-3 prostate = system: PC-3 prostate
HCT-116 colon = system: HCT-116 colon
UACC-257 melanoma = system: UACC-257 melanoma
NCI-H522 lung = system: NCI-H522 lung
U251 CNS = system: U251 CNS
MDA-MB-231 breast = system: MDA-MB-231 breast
BT-549 breast = system: BT-549 breast
SN12C renal = system: SN12C renal
NCI/ADR-RES ovarian = system: NCI/ADR-RES ovarian
SW-620 colon = system: SW-620 colon
UO-31 renal = system: UO-31 renal
NCI-H226 lung = system: NCI-H226 lung
EKVX NSCLC = system: EKVX NSCLC
SK-MEL-2 melanoma = system: SK-MEL-2 melanoma
MOLT-4 leukemia = system: MOLT-4 leukemia
RXF 393 renal = system: RXF 393 renal
HT29 colon = system: HT29 colon
SK-MEL-28 melanoma = system: SK-MEL-28 melanoma
NCI-H460 lung = system: NCI-H460 lung
K-562 leukemia = system: K-562 leukemia
IGROV1 ovarian = system: IGROV1 ovarian
RPMI-8226 leukemia = system: RPMI-8226 leukemia
LOX IMVI melanoma = system: LOX IMVI melanoma
HCT-15 colon = system: HCT-15 colon
UACC-62 melanoma = system: UACC-62 melanoma
HOP-62 NSCLC = system: HOP-62 NSCLC
OVCAR-8 ovarian = system: OVCAR-8 ovarian
OVCAR-3 ovarian = system: OVCAR-3 ovarian
MCF7 breast = system: MCF7 breast
DU-145 prostate = system: DU-145 prostate
M14 melanoma = system: M14 melanoma
HCC-2998 colon = system: HCC-2998 colon
A549 NSCLC = system: A549 NSCLC
SF-539 CNS = system: SF-539 CNS
MDA-MB-435 = system: MDA-MB-435
HOP-92 NSCLC = system: HOP-92 NSCLC
ACHN renal = system: ACHN renal
MALME-3M melanoma = system: MALME-3M melanoma
786-0 renal = system: 786-0 renal
COLO 205 colon = system: COLO 205 colon
TK-10 renal = system: TK-10 renal
CAKI-1 renal = system: CAKI-1 renal
HL-60(TB) leukemia = system: HL-60(TB) leukemia
CCRF-CEM leukemia = system: CCRF-CEM leukemia

## CCOC(=O)c1c2c(c(O)c3ccccc3c(O)n(Cc3ccc(OC)cc3)c1C)C(=O)C=CC2=O
SF-268 CNS
  GI50: > 100 µM
  TGI: > 100 µM
SF-295 CNS
  GI50: > 100 µM
  TGI: > 100 µM
KM12 colon
  GI50: > 100 µM
  TGI: > 100 µM
SK-MEL-5 melanoma
  GI50: > 100 µM
  TGI: > 100 µM
NCI-H23 lung
  GI50: > 100 µM
  TGI: > 100 µM
SNB-75 CNS
  GI50: > 100 µM
  TGI: > 100 µM
SK-OV-3 ovarian
  GI50: > 100 µM
  TGI: > 100 µM
HS 578T breast
  GI50: > 100 µM
  TGI: > 100 µM
SNB-19 CNS
  GI50: > 100 µM
  TGI: > 100 µM
OVCAR-4 ovarian
  GI50: > 100 µM
  TGI: > 100 µM
T-47D breast
  GI50: > 100 µM
  TGI: > 100 µM
A498 renal
  GI50: > 100 µM
  TGI: > 100 µM
OVCAR-5 ovarian
  GI50: > 100 µM
  TGI: > 100 µM
PC-3 prostate
  GI50: > 100 µM
  TGI: > 100 µM
HCT-116 colon
  GI50: > 100 µM
  TGI: > 100 µM
UACC-257 melanoma
  GI50: > 100 µM
  TGI: > 100 µM
NCI-H522 lung
  GI50: > 100 µM
  TGI: > 100 µM
U251 CNS
  GI50: > 100 µM
  TGI: > 100 µM
MDA-MB-231 breast
  GI50: > 100 µM
  TGI: > 100 µM
BT-549 breast
  GI50: > 100 µM
  TGI: > 100 µM
SN12C renal
  GI50: > 100 µM
  TGI: > 100 µM
NCI/ADR-RES ovarian
  GI50: > 100 µM
  TGI: > 100 µM
SW-620 colon
  GI50: > 100 µM
  TGI: > 100 µM
UO-31 renal
  GI50: > 100 µM
  TGI: > 100 µM
NCI-H226 lung
  GI50: 65.3 µM
  TGI: > 100 µM
EKVX NSCLC
  GI50: > 100 µM
  TGI: > 100 µM
SK-MEL-2 melanoma
  GI50: > 100 µM
  TGI: > 100 µM
MOLT-4 leukemia
  GI50: 76 µM
  TGI: > 100 µM
RXF 393 renal
  GI50: > 100 µM
  TGI: > 100 µM
HT29 colon
  GI50: > 100 µM
  TGI: > 100 µM
SK-MEL-28 melanoma
  GI50: > 100 µM
  TGI: > 100 µM
NCI-H460 lung
  GI50: > 100 µM
  TGI: > 100 µM
K-562 leukemia
  GI50: 76.9 µM
  TGI: > 100 µM
IGROV1 ovarian
  GI50: > 100 µM
  TGI: > 100 µM
RPMI-8226 leukemia
  GI50: > 100 µM
  TGI: > 100 µM
LOX IMVI melanoma
  GI50: > 100 µM
  TGI: > 100 µM
HCT-15 colon
  GI50: > 100 µM
  TGI: > 100 µM
UACC-62 melanoma
  GI50: > 100 µM
  TGI: > 100 µM
HOP-62 NSCLC
  GI50: > 100 µM
  TGI: > 100 µM
OVCAR-8 ovarian
  GI50: > 100 µM
  TGI: > 100 µM
OVCAR-3 ovarian
  GI50: 68.9 µM
  TGI: > 100 µM
MCF7 breast
  GI50: > 100 µM
  TGI: > 100 µM
DU-145 prostate
  GI50: > 100 µM
  TGI: > 100 µM
M14 melanoma
  GI50: > 100 µM
  TGI: > 100 µM
HCC-2998 colon
  GI50: > 100 µM
  TGI: > 100 µM
A549 NSCLC
  GI50: > 100 µM
  TGI: > 100 µM
SF-539 CNS
  GI50: 84.6 µM
  TGI: > 100 µM
MDA-MB-435
  GI50: > 100 µM
  TGI: > 100 µM
HOP-92 NSCLC
  GI50: > 100 µM
  TGI: > 100 µM
ACHN renal
  GI50: > 100 µM
  TGI: > 100 µM
MALME-3M melanoma
  GI50: > 100 µM
  TGI: > 100 µM
786-0 renal
  GI50: > 100 µM
  TGI: > 100 µM
COLO 205 colon
  GI50: > 100 µM
  TGI: > 100 µM
TK-10 renal
  GI50: > 100 µM
  TGI: > 100 µM
CAKI-1 renal
  GI50: > 100 µM
  TGI: > 100 µM

## CCC(C)C(NC(=O)C(Cc1cccs1)NC(=O)C(CC(C)C)NC(=O)C(CC(C)C)NC(=O)C(CCCCN)NC(=O)C(CCCN=C(N)N)NC(=O)[C@H](Cc1ccc(O)cc1)NC(=O)C(NC(=O)C(C)NC(=O)C(N)CC(C)C)C(C)O)C(=O)NC(CC(C)C)C(N)=O (stereo partly specified) (H-[ξL][ξA][ξT]Y[ξR][ξK][ξL][ξL][ξ2Thi][ξI][ξL]-NH2)
NCI-H23 lung
  TGI: > 50 µM
UACC-257 melanoma
  TGI: > 50 µM
BT-549 breast
  TGI: > 50 µM
NCI-H226 lung
  TGI: > 50 µM

## COc1ccc(Oc2cccc(/C=C3/C(=O)Nc4ccccc43)c2)cc1
SF-268 CNS
  TGI: 24.1 µM
SF-295 CNS
  TGI: 19.9 µM
KM12 colon
  TGI: 18 µM
SK-MEL-5 melanoma
  TGI: 11.3 µM
NCI-H23 lung
  TGI: 16.2 µM
SNB-75 CNS
  TGI: 28.3 µM
HL-60(TB) leukemia
  TGI: 12.5 µM
SK-OV-3 ovarian
  TGI: 31 µM
HS 578T breast
  TGI: 45.8 µM
SNB-19 CNS
  TGI: 19.1 µM
OVCAR-4 ovarian
  TGI: 27 µM
T-47D breast
  TGI: 9.75 µM
A498 renal
  TGI: 25.4 µM
OVCAR-5 ovarian
  TGI: 31.5 µM
PC-3 prostate
  TGI: 18.8 µM
HCT-116 colon
  TGI: 15.2 µM
UACC-257 melanoma
  TGI: 27.8 µM
NCI-H522 lung
  TGI: 19.6 µM
U251 CNS
  TGI: 14.2 µM
BT-549 breast
  TGI: 29.5 µM
CCRF-CEM leukemia
  TGI: 22.1 µM
SN12C renal
  TGI: 22.8 µM
NCI/ADR-RES ovarian
  TGI: 17.8 µM
SW-620 colon
  TGI: 23.2 µM
UO-31 renal
  TGI: 20 µM
EKVX NSCLC
  TGI: 25.1 µM
SK-MEL-2 melanoma
  TGI: 23 µM
MOLT-4 leukemia
  TGI: 13 µM
RXF 393 renal
  TGI: 15.7 µM
HT29 colon
  TGI: 12.9 µM
SK-MEL-28 melanoma
  TGI: 23.6 µM
NCI-H460 lung
  TGI: 25 µM
K-562 leukemia
  TGI: 7.63 µM
IGROV1 ovarian
  TGI: 20.9 µM
HCT-15 colon
  TGI: 21.8 µM
HOP-62 NSCLC
  TGI: 28 µM
OVCAR-8 ovarian
  TGI: > 100 µM
OVCAR-3 ovarian
  TGI: 21.6 µM
MCF7 breast
  TGI: 12.8 µM
DU-145 prostate
  TGI: 27.1 µM
M14 melanoma
  TGI: 24.3 µM
HCC-2998 colon
  TGI: 21.3 µM
A549 NSCLC
  TGI: > 100 µM
SF-539 CNS
  TGI: 33.1 µM
MDA-MB-435
  TGI: 13.8 µM
HOP-92 NSCLC
  TGI: 14.3 µM
ACHN renal
  TGI: 23.8 µM
MALME-3M melanoma
  TGI: 24.2 µM
786-0 renal
  TGI: 24.1 µM
COLO 205 colon
  TGI: 14 µM
TK-10 renal
  TGI: 29.9 µM
CAKI-1 renal
  TGI: 20.9 µM
